Results reported in article PMC10223062, “Discovery of Novel Thiophene/Hydrazones: In Vitro and In Silico Studies against Pancreatic Cancer” (Pharmaceutics, 2023).

What was measured:
MIA PaCa-2 cell line = assay: 2D anticancer activity, MTT assay; type: cell-based; details: Homo sapiens, 72 h exposure, read-out: IC50 in 2D cultured MIA PaCa-2 cell line
Description: (§1) For the preliminary assessment of anticancer activity in a 2D cell culture system, an MIA PaCa-2 human pancreas epithelial carcinoma (CRL-1420™) cell line (ATCC, Manassas, VA, USA) was cultured in Dulbecco’s Modified Eagle Medium with 10% fetal bovine serum (FBS, v/v) (Gibco, Billings, MT, USA) and supplemented with 1% antibiotics (10,000 μg/mL streptomycin and 10,000 U/mL penicillin) (Gibco, Billings, MT, USA) at 37 °C in a humidified 5% CO2 atmosphere. For the in vitro modeling of the tumor microenvironment, compounds were also tested in a 3D spheroid test system. For this purpose, the MIA PaCa-2 human pancreas epithelial carcinoma (CRL-1420™) cell line and human dermal fibroblast cell line HDF (PCS-201-012) cells were used.
For the assessment of anticancer activity of the compounds, the MIA PaCa-2 cells were plated in 48-well microplates at 1.5 × 10^5 cells/mL and incubated for 24 h at 37 °C in 5% CO2 in accordance with a previously reported method. Following the day, the cells were treated with compounds in various concentrations between 0.1–100 µM dissolved in dimethyl sulfoxide (DMSO) (Sigma Aldrich, St. Louis, MO, USA). Following the 72 h of incubation, culture mediums were discarded and 0.5 mg/mL 3-(4,5-Dimethylthiazol-2-yl)-2,5-Diphenyltetrazolium Bromide (MTT) (Sigma Aldrich, St. Louis, MO, USA) was added to each well for an additional 2 h at 37 °C. After 2 h incubation, the medium was discarded and 100 µL of isopropanol (Sigma Aldrich, St. Louis, MO, USA) was added to the wells to dissolve formazan crystals. The optical density was measured at 570 nm wavelength using a microplate reader (Thermo Fisher Scientific Multiskan, Finland). Doxorubicin hydrochloride (DOX) (European Pharmacopoeia standard, Sigma) was used as internal positive control, and 0.5% DMSO (v/v) was used as negative control. The percentage of cell viability was determined by using the following equation:(1) Viability %=(Absorbancecompound)/(Absorbancenegative control)×100%

HaCaT cell line = assay: Cell viability (cytotoxicity) in healthy cells, MTT assay; type: cell-based, human; details: for IC50: Homo sapiens, HaCaT, MTT, 72 h, healthy keratinocytes, read-out: IC50 in 2D cultured HaCaT cell line; for Selectivity, cancer vs healthy cell line: MIA PaCa-2 vs healthy cell line (HaCaT)
Description: HaCaT human healthy keratinocyte cells (CRL-2404™) (ATCC, Manassas, VA, USA) were cultured in DMEM (10% FBS, v/v) (Gibco, Billings, MT, USA), respectively and supplemented with 1% antibiotics (10.000 μg/mL streptomycin and 10.000 units/mL penicillin) (Gibco, Billings, MT, USA) at 37 °C in a humidified atmosphere of 5% CO2. For the preliminary assessment of the cytotoxicity of selected potent compounds in healthy cells, HaCaT cells were seeded 2 × 10^5 cells/mL in 96-well plate and incubated for 24 h. The following day the 7a, 7d, and 7f compounds were applied similarly as in the MIA PaCa-2 cytotoxicity protocol between concentrations 0.62–100 µM for 72 h and then MTT was applied.

[1] = tested on: MIA PaCa-2 tumor spheroids; assay: 3D spheroid formation/growth assay; type: cell-based, human; design: Spheroid Diameter Day 0 / Spheroid Diameter Day 9: unit not given here; details: for Spheroid Diameter Day 0: Day 0 (baseline); for Reduction of spheroid diameter: 9 days
Description: as §1
For 3D spheroid formation, the MIA PaCa-2 cells (PC cell line) and HDF cells were used according to the 3D Bioprinting method. To better simulate the tumor microenvironment, PC cells were mixed (1:1) with human fibroblasts. Briefly, the MIA PaCa-2 cells and human fibroblasts at 70–80% confluency were added to a 6-well plate and incubated with biocompatible NanoShuttle TM-PL (Bioprinting Kit, Greiner Bio-One, Germany) overnight at 37 °C in a humidified 5% CO2 atmosphere. After the nanoparticles were taken up by the cells, they were resuspended and seeded into an ultra-low attachment 96-well plate at a volume of 100 μL (2000 PC cells and 2000 human fibroblasts per well) volume. The plate was placed on a magnetic drive and incubated at 37 °C in a humidified 5% CO2 atmosphere until spheroids were formed. After two days of incubation, the spheroids were photographed using light microscopy (Carl Zeiss Primo Vert, Germany). Fresh medium containing 0.1, 1, 10, and 100 µM of tested compound was added to the wells. Photos were taken every 72 h, and the medium was replaced every 72 h. The effect of the tested compounds in 3D PC cell cultures was examined by measuring the size change of spheroids using ImageJ software (ImageJ 2.0 software, USA).

COX-2 = molecular target: T1, COX-2 (Homo sapiens, UniProt P35354); assay: Fluorometric COX-2 inhibitor screening kit; details: for COX-2 Percent of İnhibition: at 10 µM; for IC50: COX-2 IC50
T1 sequence (P35354 18-604): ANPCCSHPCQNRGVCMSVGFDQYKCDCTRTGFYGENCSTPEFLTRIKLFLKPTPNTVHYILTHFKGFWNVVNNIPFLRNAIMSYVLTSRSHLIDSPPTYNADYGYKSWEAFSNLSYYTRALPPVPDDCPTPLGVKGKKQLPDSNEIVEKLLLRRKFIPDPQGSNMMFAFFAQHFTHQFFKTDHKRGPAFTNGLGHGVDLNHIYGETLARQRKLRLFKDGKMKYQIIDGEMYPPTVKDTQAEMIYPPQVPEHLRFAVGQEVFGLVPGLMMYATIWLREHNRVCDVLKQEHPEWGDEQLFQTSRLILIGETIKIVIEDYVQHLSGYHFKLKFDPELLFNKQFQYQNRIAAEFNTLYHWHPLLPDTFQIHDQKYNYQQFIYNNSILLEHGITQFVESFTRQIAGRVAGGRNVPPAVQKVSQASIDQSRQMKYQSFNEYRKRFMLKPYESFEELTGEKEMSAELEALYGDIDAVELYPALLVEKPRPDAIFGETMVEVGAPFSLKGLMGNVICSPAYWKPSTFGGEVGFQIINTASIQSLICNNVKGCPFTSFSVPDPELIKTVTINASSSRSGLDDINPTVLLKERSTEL
Description: COX-1 and COX-2 inhibitory activities were tested using fluorometric COX-1 and COX-2 inhibitor screening kits (Abcam, United Kingdom), and the 5-LOX inhibitory activity was tested using a fluorometric 5-LOX inhibitor screening kit (MyBioSource, USA). These assays are based on the fluorometric detection of Prostaglandin G2 (a product generated by the COX enzyme) or on the fluorometric detection of the intermediate generated by the 5-LOX enzyme.
For the determination of COX-1 and COX-2 inhibitory activity, the tested compounds were dissolved in dimethyl sulfoxide (DMSO, 5 mM stock solution) and then diluted with the same solvent to obtain the test solutions. The test solutions were further diluted 5× with COX Assay Buffer (2 µL of test solution: 8 µL COX Assay Buffer). […] Solvent Control (SC) was prepared by adding 2 µL DMSO and 8 µL COX Assay Buffer, while Sample (S) and Enzyme Control (EC) were prepared by adding 10 µL of diluted test solution and COX Assay Buffer, respectively, into assigned wells.
EC, SC, IC, and all test solutions were analyzed in triplicate.

SMILES | IC50 (MIA PaCa-2 cell line) [µM] | IC50 (HaCaT cell line) [µM] | Selectivity, cancer vs healthy cell line (HaCaT cell line) | Spheroid Diameter Day 0 ([1]; 0.1 µM group) | Spheroid Diameter Day 9 ([1]; 0.1 µM) | Spheroid Diameter Day 0 ([1]; 1 µM group) | Spheroid Diameter Day 9 ([1]; 1 µM) | Spheroid Diameter Day 0 ([1]; 10 µM group) | Spheroid Diameter Day 9 ([1]; 10 µM) | Reduction in spheroid size ([1]; 10 µM, after 9 days of treatment) [%] | Spheroid Diameter Day 0 ([1]; 100 µM group) | Reduction of spheroid diameter ([1]; 100 µM) [%] | Spheroid Diameter Day 9 ([1]; 100 µM) | COX-2 Percent of İnhibition (COX-2) [%] | IC50 (COX-2) [µM] | Spheroid state at the end of the 9 days ([1]; 10–100 µM) | Spheroid state at the end of the 9 days ([1]; 100 µM)
O=C(N/N=C/c1ccccc1O)c1cc(-c2ccccc2)c(-c2ccccc2)s1 [7a, N’-[(E)-(2-hydroxyphenyl)methylidene]-4,5-diphenylthiophene-2-carbohydrazide] | 7.51 ± 0.08 | 0.88 ± 0.06 | cytotoxic effects on healthy cell line too | 1156.5 ± 14.2 | 5050.5 ± 36.9 | 1186.5 ± 91.9 | 1755.0 ± 58.9 | 1176.0 ± 31.1 | 636.0 ± 12.7 | 46 | 1183.0 ± 36.1 | 65 | 432.0 ± 17.4 | 13.57 ± 0.38 |  |  | 
O=C(N/N=C/c1ccc(O)cc1)c1cc(-c2ccccc2)c(-c2ccccc2)s1 [7c, N’-[(E)-(4-hydroxyphenyl)methylidene]-4,5-diphenylthiophene-2-carbohydrazide] | 42.8 ± 3.59 |  |  | 1118.0 ± 31.1 | 5415.0 ± 12.7 | 1168.0 ± 52.7 | 6174.0 ± 106.1 | 989.5 ± 54.1 | 3729.5 ± 12.8 |  | 940.5 ± 33.9 |  | 2207.0 ± 47.1 | 51.97 ± 2.51 | 10.1 ± 0.25 |  | 
COc1ccccc1/C=N/NC(=O)c1cc(-c2ccccc2)c(-c2ccccc2)s1 [7d, N’-[(E)-(2-methoxyphenyl)methylidene]-4,5-diphenylthiophene-2-carbohydrazide] | 9.09 ± 1.04 | > 100 | showed selectivity | 1127.5 ± 36.1 | 4911.0 ± 117.4 | 1211.0 ± 17.9 | 6312.5 ± 24.8 | 1297.5 ± 55.1 | 1708.0 ± 87.1 |  | 974.0 ± 32.2 | 55 | 445.7 ± 64.1 | 16.74 ± 3.36 |  |  | 
COc1cc(/C=N/NC(=O)c2cc(-c3ccccc3)c(-c3ccccc3)s2)ccc1O [7e, N’-[(E)-(3-methoxy-4-hydroxyphenyl)methylidene]-4,5-diphenylthiophene-2-carbohydrazide] | > 100 |  |  | 1181.5 ± 33.2 | 5607.5 ± 44.55 | 1153.0 ± 73.5 | 6396.0 ± 16.1 |  |  |  |  |  |  | 49.41±1.12 | 13.9 ± 0.76 | disintegrated | 
COc1ccc(/C=N/NC(=O)c2cc(-c3ccccc3)c(-c3ccccc3)s2)cc1O [7f, N’-[(E)-(3-hydroxy-4-methoxyphenyl)methylidene]-4,5-diphenylthiophene-2-carbohydrazide] | 4.86 ± 0.19 | 0.67 ± 0.13 | cytotoxic effects on healthy cell line too | 1110.0 ± 113.1 | 5823.0 ± 39.8 | 1108.0 ± 17.6 | 4336.0 ± 48.1 | 1215.0 ± 12.7 | 2806.0 ± 31.5 |  |  |  |  | 38.41 ± 0.85 | 39 ± 3.41 |  | disintegrated
